This note sets out measurements from patent US11512079B2, “Heterocycle substituted pyridine derivative antifungal agents” (Amplyx Pharmaceuticals, Inc., priority 2017, dated 2022).

Common to all, as to assay type: cell-based
The test system of test [1] is Aspergillus fumigatus MYA3626. The test can be described thus: In vitro antifungal assay (Example IX), microdilution broth, MEC. Particulars: minimum effective concentration (shortening of hyphae), 35° C., 40-48 h, RPMI1640. The protocol: (§1) Measurement of antifungal activity: […] Candida albicans 90028, Aspergillus fumigatus MYA3626, Rhizomucor pusillus 46342 and Cryptococcus neoformans […] strains were obtained from American Type Culture Collection (ATCC). […] (A. fumigatus) and 35° C. (R. pusillus). Water containing 1% Tween was directly added to the agar plate and gently agitated to wet and remove the Aspergillus conidia. For R. pusillus, water was added to the surface and gently massaged to wet and remove the spores. For both species, the conidia or spores and mycelial fragments were collected, followed by removal of mycelium, conidiophores and large clumps of conidia/spores. The resulting spore suspension was counted and diluted into RPMI1640 medium to adjust to a final suspension of 1-2×10^4 spores/mL. The suspension was used in the MEC measurement as described below. […] The compounds were weighed and DMSO was added to prepare a 10 mg/mL stock. The solutions were mixed by vortexing and sonication at 37° C. for 5-10 mins. The resulting solutions were sterile filtered using a PTFE filter, and aliquoted (12 μL or as needed) and stored at -20° C. Intermediate compound dilutions were prepared in sterile polypropylene tubes in 100% DMSO. […] This was validated by thorough mixing and reading at 600 nm on a microplate reader. The minimum concentration that led to shortening of hyphae as compared to hyphal growth in DMSO control wells was determined as the minimum effective concentration (MEC) for A. fumigatus and R. pusillus (as read for echinocandins). The use of the MIC and MEC endpoints against yeasts and molds, respectively has been described by Pfaller M A, Duncanson F, Messer S A, Moet G J, Jones […]. Antimicrob Agents Chemother. 2011. 55(11):5155-8. In vitro activity of a novel broad-spectrum antifungal, […], tested against Aspergillus spp. determined by CLSI and EUCAST broth microdilution methods. Results are shown in Table 2, and the letters indicate the following ranges in μg/mL: […]

Test [2] relates to Rhizomucor pusillus 46342. Described as above. Particulars: minimum effective concentration (shortening of hyphae), 35° C., 40-48 h, RPMI1640. The protocol: as §1
Another test has as its system Candida albicans 90028. The test can be described thus: In vitro antifungal assay (Example IX), microdilution broth, MIC. Particulars: minimum inhibitory concentration (≥50% inhibition), 35° C., 40-48 h, RPMI1640. The protocol: Measurement of antifungal activity: Antifungal activity of the compounds was evaluated in a microdilution broth assay as per Clinical and Laboratory Standard Institute methodology for yeast (for Candida and Cryptococcus) (1) and molds (for Aspergillus and Rhizomucor) (2). Candida albicans 90028, Aspergillus fumigatus MYA3626, Rhizomucor pusillus 46342 and Cryptococcus neoformans H99 strains were obtained from American Type Culture Collection (ATCC).
Preparation of Fungal Suspension. C. albicans 90028 and C. neoformans H99 strains were streaked from frozen stocks at −80° C. onto Sabouraud Dextrose Agar (SDA) plates. These were allowed to grow for 24 h (C. albicans) and 48 h (C. neoformans) at 35° C. before using them in the assay. 5-6 individual colonies were picked and diluted into sterile water to obtain a fungal suspension. The cell density of the suspension was determined and the culture diluted with RPMI1640 medium to obtain a fungal suspension of 2.5×10^3 cells/mL. The suspension was used in the MIC measurement as described below.
Preparation of Compound Stocks and Intermediate Dilutions: The compounds were weighed and DMSO was added to prepare a 10 mg/mL stock. The solutions were mixed by vortexing and sonication at 37° C. for 5-10 mins. The resulting solutions were sterile filtered using a PTFE filter, and aliquoted (12 μL or as needed) and stored at −20° C. Intermediate compound dilutions were prepared in sterile polypropylene tubes in 100% DMSO. The compound stock solution was first diluted in DMSO to obtain a concentration of […] to 0.19 μg/mL.
MIC/MEC Measurement: 99 μL 1 of the fungal suspension in RPMI1640 prepared as above was added to each well of a 96-well round bottom assay plate. 1 μL of the intermediate compound dilutions (200-0.19 μg/mL) were added to wells of the plate. This led to a 100-fold dilution of the intermediate dilutions resulting in a final compound concentration of 2-0.0019 μg/mL in the plate. 1 μL of DMSO was added to “No drug” control wells. The solutions were mixed by shaking on a plate shaker for 10 mins and plates incubated at 35° C. for 40-48 h (C. albicans, A. fumigatus, R. pusillus) and 72 h (Cryptococcus). […] This was validated by thorough mixing and reading at 600 nm on a microplate reader. The minimum concentration that led to shortening of hyphae as compared to hyphal growth in DMSO control wells was determined as the minimum effective concentration (MEC) for A. fumigatus and R. pusillus (as read for echinocandins). The use of the MIC and MEC endpoints against yeasts and molds, respectively has been described by Pfaller M A, Duncanson F, Messer S A, Moet G J, Jones R N, Castanheira M. Antimicrob Agents Chemother. 2011. 55(11):5155-8. In vitro activity of a novel broad-spectrum antifungal, E1210, tested against Aspergillus spp. determined by CLSI and EUCAST broth microdilution methods. Results are shown in Table 2, and the letters indicate the following ranges in μg/mL: […]
On the technique in general: Broth dilution looks for growth in wells or tubes with falling amounts of substance.

≈ marks a conversion by molar mass, not a printed value. Some results are limits rather than exact numbers.

On to `Nc1ncccc1-c1cc(Cc2ccc(CNc3cc(F)cc(F)c3)cc2)no1` [Example 167, 3-(3-(4-(((3,5-difluorophenyl)amino)methyl)benzyl)isoxazol-5-yl)pyridin-2-amine], for which the minimal effective concentration in test [1] is 0.01 to 0.1 µg/mL; in test [2], 0.1 to 1 µg/mL. The compound also registered an MIC in the test on Candida albicans 90028 of 0.1 to 1 µg/mL (≈ 0.255 to 2.55 µM).
Regarding `Nc1ncccc1-c1cc(Cc2ccc(Cn3ncc4ccccc43)cc2)no1` [Example 170, 3-(3-(4-((1H-indazol-1-yl)methyl)benzyl)isoxazol-5-yl)pyridin-2-amine], the minimal effective concentration in test [1] and in test [2] was 0.1 to 1 µg/mL throughout. Moreover, the MIC in the test on Candida albicans 90028 was 0.1 to 1 µg/mL (≈ 0.262 to 2.62 µM).
Take `Nc1ncccc1-c1cc(Cc2ccc(Cn3cc4ccccc4n3)cc2)no1` [Example 171, 3-(3-(4-((2H-indazol-2-yl)methyl)benzyl)isoxazol-5-yl)pyridin-2-amine]: the minimal effective concentration in test [1] and in test [2] was 0.1 to 1 µg/mL each time. Moreover, the MIC with Candida albicans 90028 fell in the range of 0.01 to 0.1 µg/mL (≈ 0.0262 to 0.262 µM).
With `N#Cc1cnn(Cc2ccc(Cc3cc(-c4cccnc4N)on3)cc2)c1` [compound 3, 1-(4-((5-(2-aminopyridin-3-yl)isoxazol-3-yl)methyl)benzyl)-1H-pyrazole-4-carbonitrile], the figures for the minimal effective concentration in test [1] and in test [2] were 0.1 to 1 µg/mL and above 1 µg/mL, respectively. Further, the MIC in the test on Candida albicans 90028 was in the range of 0.1 to 1 µg/mL (≈ 0.281 to 2.81 µM).
For `Nc1ncccc1-c1cc(Cc2ccc(CNc3ncns3)cc2)no1` [compound 6, N-(4-((5-(2-aminopyridin-3-yl)isoxazol-3-yl)methyl)benzyl)-1,2,4-thiadiazol-5-amine], the minimal effective concentration in test [1] and in test [2] was above 1 µg/mL in each case. In the test with Candida albicans 90028, this compound gave an MIC above 1 µg/mL.
Turning to `Nc1ncccc1-c1cc(Cc2ccc(CNc3cnc4[nH]ccc4c3)cc2)no1` [compound 7, N-(4-((5-(2-aminopyridin-3-yl)isoxazol-3-yl)methyl)benzyl)-1H-pyrrolo[2,3-b]pyridin-5-amine], the minimal effective concentration in test [1] is 0.1 to 1 µg/mL; in test [2], above 1 µg/mL. This compound came in with an MIC with Candida albicans 90028 of 0.1 to 1 µg/mL (≈ 0.252 to 2.52 µM).
Take `Nc1ncccc1-c1cc(Cc2ccc(Cc3ccc4ncnn4c3)cc2)no1` [compound 13, 3-(3-(4-([1,2,4]triazolo[1,5-a]pyridin-6-ylmethyl)benzyl)isoxazol-5-yl)pyridin-2-amine]: the minimal effective concentration in test [1] is 0.1 to 1 µg/mL; in test [2], above 1 µg/mL. The compound also had an MIC with Candida albicans 90028 of 0.1 to 1 µg/mL (≈ 0.261 to 2.61 µM).
As for `CC(C)Cn1cc(Cc2ccc(Cc3cc(-c4cccnc4N)on3)cc2)cn1` [compound 16, 3-(3-(4-((1-isobutyl-1H-pyrazol-4-yl)methyl)benzyl)isoxazol-5-yl)pyridin-2-amine], the minimal effective concentration in test [1] and in test [2] was 0.1 to 1 µg/mL in each case. The minimum inhibitory concentration (MIC) in the test on Candida albicans 90028 lay in the range of 0.1 to 1 µg/mL (≈ 0.258 to 2.58 µM).
In the case of `Nc1ncccc1-c1cc(Cc2ccc(Cc3cncnc3)cc2)no1` [compound 21, 3-(3-(4-(pyrimidin-5-ylmethyl)benzyl)isoxazol-5-yl)pyridin-2-amine], the minimal effective concentration in test [1] is 0.1 to 1 µg/mL; in test [2] it was above 1 µg/mL. The compound also showed a minimum inhibitory concentration (MIC) against Candida albicans 90028 of 0.1 to 1 µg/mL (≈ 0.291 to 2.91 µM).
With `Nc1ncccc1-c1cc(Cc2ccc(COc3cccc4ccccc34)cc2)no1` [compound 24, 3-(3-(4-((naphthalen-1-yloxy)methyl)benzyl)isoxazol-5-yl)pyridin-2-amine], the minimal effective concentration in test [1] and in test [2] was above 1 µg/mL throughout. In addition, the MIC against Candida albicans 90028 is above 1 µg/mL.
As to `Nc1ncccc1-c1cc(Cc2ccc(COc3ccc(Cl)c4ccccc34)cc2)no1` [compound 25, 3-(3-(4-(((4-chloronaphthalen-1-yl)oxy)methyl)benzyl)isoxazol-5-yl)pyridin-2-amine], the minimal effective concentration in test [1] and in test [2] was above 1 µg/mL in each case. In the test on Candida albicans 90028, this compound returned an MIC above 1 µg/mL.
As to `Cc1cnc(COc2ccc(Cc3cc(-c4cccnc4N)on3)cc2)nc1` [compound 29, 3-(3-(4-((5-methylpyrimidin-2-yl)methoxy)benzyl)isoxazol-5-yl)pyridin-2-amine], the minimal effective concentration in test [1] was 0.1 to 1 µg/mL; in test [2] it was above 1 µg/mL. This compound yielded an MIC in the test on Candida albicans 90028 of 0.1 to 1 µg/mL (≈ 0.268 to 2.68 µM).
For the compound `Cc1nccc(NCc2ccc(Cc3cc(-c4cccnc4N)on3)cc2)n1` [compound 33, N-(4-((5-(2-aminopyridin-3-yl)isoxazol-3-yl)methyl)benzyl)-2-methylpyrimidin-4-amine], the minimal effective concentration in test [1] and in test [2] was above 1 µg/mL in each case. The compound further came in with an MIC in the test on Candida albicans 90028 above 1 µg/mL.
On to `Nc1ncccc1-c1cc(Cc2ccc(OCC3COC3)nc2)no1` [compound 44, 3-(3-((6-(oxetan-3-ylmethoxy)pyridin-3-yl)methyl)isoxazol-5-yl)pyridin-2-amine], for which the minimal effective concentration in test [1] and in test [2] was above 1 µg/mL each time. This compound also displayed an MIC with Candida albicans 90028 of 0.1 to 1 µg/mL (≈ 0.296 to 2.96 µM).
With `Cn1ccc(COc2ccc(Cc3cc(-c4cccnc4N)on3)cn2)n1` [compound 45, 3-(3-((6-((1-methyl-1H-pyrazol-3-yl)methoxy)pyridin-3-yl)methyl)isoxazol-5-yl)pyridin-2-amine], the results for the minimal effective concentration in test [1] and in test [2] were 0.1 to 1 µg/mL and above 1 µg/mL, respectively. In addition, the MIC with Candida albicans 90028 was 0.1 to 1 µg/mL (≈ 0.276 to 2.76 µM).
As to `Cn1cc(COc2ccc(Cc3cc(-c4cccnc4N)on3)cn2)cn1` [compound 49, 3-(3-((6-((1-methyl-1H-pyrazol-4-yl)methoxy)pyridin-3-yl)methyl)isoxazol-5-yl)pyridin-2-amine], the minimal effective concentration in test [1] and in test [2] was above 1 µg/mL each time. The MIC against Candida albicans 90028 is above 1 µg/mL.
For `Cc1occc1COc1ccc(Cc2cc(-c3cccnc3N)on2)cn1` [compound 52, 3-(3-((6-((2-methylfuran-3-yl)methoxy)pyridin-3-yl)methyl)isoxazol-5-yl)pyridin-2-amine], the minimal effective concentration in test [1] is 0.1 to 1 µg/mL; in test [2] it was above 1 µg/mL. In the test with Candida albicans 90028, this compound came in with an MIC of 0.1 to 1 µg/mL (≈ 0.276 to 2.76 µM).
Take `CC(Oc1ccc(Cc2cc(-c3cccnc3N)on2)cn1)c1ccccc1F` (stereo not drawn) [compound 56, 3-(3-((6-(1-(2-fluorophenyl)ethoxy)pyridin-3-yl)methyl)isoxazol-5-yl)pyridin-2-amine]: the figures for the minimal effective concentration in test [1] and in test [2] were 0.1 to 1 µg/mL and above 1 µg/mL, respectively. The MIC in the test on Candida albicans 90028 lay within 0.1 to 1 µg/mL (≈ 0.256 to 2.56 µM).
As for `Nc1ncccc1-c1cc(Cc2ccc(Nc3cccc(F)c3)nc2)no1` [compound 59, 5-((5-(2-aminopyridin-3-yl)isoxazol-3-yl)methyl)-N-(3-fluorophenyl)pyridin-2-amine], the minimal effective concentration is 0.1 to 1 µg/mL in test [1] and above 1 µg/mL in test [2]. For the same compound, the MIC in the test on Candida albicans 90028 lay within 0.1 to 1 µg/mL (≈ 0.277 to 2.77 µM).

As a reminder, the minimal effective concentration is the smallest amount tested that counted as effective. Low values mean an effect from little substance, high ones a need for much substance. As usually defined, the MIC is the lowest concentration that inhibits growth of the organism.
